Reference: ChEMBL document CHEMBL1201862, “PubChem BioAssay data set” (2004)
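Tested at 5 concentrations; 48 h exposure; 96-well plates; endpoints linearly interpolated, else capped at highest concentration. Here, GI50 denotes the concentration required for 50% inhibition of growth.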 Calls of active or inactive are those of the source. Cut-off read from the data, not from the text of the source: active = GI50 up to about 1.1 µM and inactive = higher. Square brackets hold non-standard residues; d marks the D form. Peptide text beside a SMILES is read from it. * marks the point of attachment. Bn2Val = CC(C)[C@@H](C(=O)*)N(Cc1ccccc1)Cc1ccccc1; NH(3,4-diMeO-benzyl) = COc1ccc(CN*)cc1OC; NMeV = CN[C@H](C(=O)O)C(C)C; dNMeA = CN[C@H](C)C(=O)O

Legend:
Assay in all cases: DTP human tumour cell line panel, 48 h
DU-145 = system: DU-145
NCI-H23 = system: NCI-H23
HCC 2998 = system: HCC 2998
SW-620 = system: SW-620
HCT-15 = system: HCT-15
COLO 205 = system: COLO 205
KM12 = system: KM12
NCI-H460 = system: NCI-H460
HOP-92 = system: HOP-92
SF-268 = system: SF-268
EKVX = system: EKVX
K562 = system: K562
MDA-N = system: MDA-N
CAKI-1 = system: CAKI-1
LOX IMVI = system: LOX IMVI
MOLT-4 = system: MOLT-4
BT-549 = system: BT-549
OVCAR-3 = system: OVCAR-3
SR = system: SR
SF-539 = system: SF-539

Structure (SMILES)	GI50 (DU-145)	GI50 (NCI-H23)	GI50 (HCC 2998)	GI50 (SW-620)	GI50 (HCT-15) [µM]	GI50 (COLO 205)	GI50 (KM12)	GI50 (NCI-H460)	GI50 (HOP-92)	GI50 (SF-268)	GI50 (EKVX)	GI50 (K562)	GI50 (MDA-N)	GI50 (CAKI-1)	GI50 (LOX IMVI)	GI50 (MOLT-4)	GI50 (BT-549)	GI50 (OVCAR-3)	GI50 (SR)	GI50 (SF-539)
CC12CCC(C1)C(C)(C)C2OC(=O)c1ccccc1C(=O)O (stereo unspecified)	> 100 µM (inactive)	> 100 µM (inactive)	> 100 µM (inactive)	> 100 µM (inactive)	> 100	> 100 µM (inactive)	> 100 µM (inactive)	> 100 µM (inactive)	> 100 µM (inactive)	> 100 µM (inactive)	> 100 µM (inactive)	> 100 µM (inactive)	> 100 µM (inactive)	> 100 µM (inactive)	> 100 µM (inactive)	> 100 µM (inactive)	> 100 µM (inactive)			
COc1cc(/C=C2\N=C(c3ccccc3)N(c3nc4ccc(Sc5ccccc5)cc4[nH]3)C2=O)cc(OC)c1OC	21.8 µM (inactive)	27 µM (inactive)	16.5 µM (inactive)	25 µM (inactive)	21.1	18.9 µM (inactive)	17.6 µM (inactive)	21.6 µM (inactive)	58.6 µM (inactive)	26.2 µM (inactive)	38.7 µM (inactive)	13.2 µM (inactive)	4.76 µM (inactive)	31.1 µM (inactive)	23.3 µM (inactive)	26.8 µM (inactive)	20.8 µM (inactive)	22.6 µM (inactive)		
O=S1(=O)OCCCOS(=O)(=O)C1(Br)Br	> 100 µM (inactive)	> 100 µM (inactive)		> 100 µM (inactive)	> 100	> 100 µM (inactive)	> 100 µM (inactive)			> 100 µM (inactive)	> 100 µM (inactive)		> 100 µM (inactive)	> 100 µM (inactive)	> 100 µM (inactive)	> 100 µM (inactive)	> 100 µM (inactive)	> 100 µM (inactive)	> 100 µM (inactive)	
COc1ccc(C2CC(=O)Oc3ccccc3O2)cc1 (stereo unspecified)	> 100 µM (inactive)	> 100 µM (inactive)	> 100 µM (inactive)	> 100 µM (inactive)	> 100	> 100 µM (inactive)	> 100 µM (inactive)	> 100 µM (inactive)		> 100 µM (inactive)	> 100 µM (inactive)	> 100 µM (inactive)	98.2 µM (inactive)			> 100 µM (inactive)	> 100 µM (inactive)	> 100 µM (inactive)	52.7 µM (inactive)	> 100 µM (inactive)
CN(C)CC(O)CNC(=O)Nc1ccccc1 (stereo unspecified)	> 100 µM (inactive)	> 100 µM (inactive)	> 100 µM (inactive)	> 100 µM (inactive)	> 100	> 100 µM (inactive)	> 100 µM (inactive)	> 100 µM (inactive)	> 100 µM (inactive)	> 100 µM (inactive)	> 100 µM (inactive)	> 100 µM (inactive)	> 100 µM (inactive)	> 100 µM (inactive)	> 100 µM (inactive)		> 100 µM (inactive)	> 100 µM (inactive)		> 100 µM (inactive)
O=C1/C(=C\c2cccc(Oc3ccccc3)c2)SC(c2ccccc2)N1c1cccc(Cl)c1 (stereo unspecified)	> 100 µM (inactive)	> 100 µM (inactive)	> 100 µM (inactive)	> 100 µM (inactive)	> 100	> 100 µM (inactive)	35.8 µM (inactive)	> 100 µM (inactive)	> 100 µM (inactive)	> 100 µM (inactive)	> 100 µM (inactive)	> 100 µM (inactive)	> 100 µM (inactive)	> 100 µM (inactive)	> 100 µM (inactive)	> 100 µM (inactive)	> 100 µM (inactive)	> 100 µM (inactive)		
Clc1ccc(-c2ccc(-c3nnc(COc4ccc(OCc5nnc(-c6ccc(-c7ccc(Cl)cc7Cl)o6)o5)c(Cl)c4)o3)o2)c(Cl)c1	> 100 µM (inactive)	> 100 µM (inactive)	> 100 µM (inactive)	> 100 µM (inactive)	> 100	> 100 µM (inactive)	> 100 µM (inactive)	> 100 µM (inactive)		56.1 µM (inactive)	> 100 µM (inactive)	> 100 µM (inactive)	> 100 µM (inactive)	> 100 µM (inactive)	> 100 µM (inactive)	28.4 µM (inactive)	> 100 µM (inactive)	> 100 µM (inactive)	28.8 µM (inactive)	
N/C(=N\c1ccc(Cl)c(Cl)c1)c1ccccc1N	51.9 µM (inactive)	24.3 µM (inactive)	17.7 µM (inactive)	63.8 µM (inactive)	28.2	20.6 µM (inactive)	33.6 µM (inactive)	34.8 µM (inactive)	2.88 µM (inactive)	20.2 µM (inactive)	18.3 µM (inactive)	18.4 µM (inactive)	19.6 µM (inactive)	30.3 µM (inactive)	22.1 µM (inactive)	2.7 µM (inactive)	24 µM (inactive)	39.5 µM (inactive)		
COc1ccccc1C1(c2c(OC(C)C)c(=O)c2=O)SCCCS1	> 100 µM (inactive)	> 100 µM (inactive)		> 100 µM (inactive)	> 100	> 100 µM (inactive)	> 100 µM (inactive)	> 100 µM (inactive)	> 100 µM (inactive)	> 100 µM (inactive)	> 100 µM (inactive)		> 100 µM (inactive)	> 100 µM (inactive)	> 100 µM (inactive)	> 100 µM (inactive)	72.6 µM (inactive)	> 100 µM (inactive)		> 100 µM (inactive)
O=C1CC(NC(=O)C(F)(F)F)c2c(Br)sc(N3CCC(c4ccccc4)CC3)c21 (stereo unspecified)	22.2 µM (inactive)	6.7 µM (inactive)	> 100 µM (inactive)	43.4 µM (inactive)	25.1	> 100 µM (inactive)	> 100 µM (inactive)	13.7 µM (inactive)	3.87 µM (inactive)	43.4 µM (inactive)	43.9 µM (inactive)	5.27 µM (inactive)	78.9 µM (inactive)	12.9 µM (inactive)	7.85 µM (inactive)	4.68 µM (inactive)	27.7 µM (inactive)	6.25 µM (inactive)		44.6 µM (inactive)
CCc1cc(O)c(Cl)c(C)c1Cl	16.7 µM (inactive)	19 µM (inactive)	15.2 µM (inactive)	21.9 µM (inactive)	17.4	21.4 µM (inactive)	15.2 µM (inactive)	15.6 µM (inactive)	12.8 µM (inactive)	20.9 µM (inactive)	11.9 µM (inactive)		16.3 µM (inactive)	17.3 µM (inactive)	15.9 µM (inactive)		17.5 µM (inactive)	18.2 µM (inactive)		18.2 µM (inactive)
c1ccc(C2=NN=C3C(c4ccccc4)=Nc4ccccc4N3C2)cc1	7.94 µM (inactive)	47.3 µM (inactive)	22.4 µM (inactive)	10.5 µM (inactive)	11.6	20.5 µM (inactive)	29 µM (inactive)	5.07 µM (inactive)	29.3 µM (inactive)	9.48 µM (inactive)	23.6 µM (inactive)	13.9 µM (inactive)	31.3 µM (inactive)	43.7 µM (inactive)	10 µM (inactive)	3.87 µM (inactive)	32.4 µM (inactive)	3.37 µM (inactive)		39.5 µM (inactive)
CN1N=C(c2ccccc2)c2cc(Cl)ccc2N=C1N/N=C/c1ccc(N(C)C)cc1	> 100 µM (inactive)	> 100 µM (inactive)	> 100 µM (inactive)	> 100 µM (inactive)	87.7	> 100 µM (inactive)	> 100 µM (inactive)	> 100 µM (inactive)		> 100 µM (inactive)	> 100 µM (inactive)	64.3 µM (inactive)	> 100 µM (inactive)	> 100 µM (inactive)		62.7 µM (inactive)	> 100 µM (inactive)	> 100 µM (inactive)	49.2 µM (inactive)	> 100 µM (inactive)
CC1=CCC(=O)[C@]2(C)C(CC(=O)O)[C@]3(C)C4=C(C)C(c5ccoc5)C[C@@H]4O[C@@H]3[C@H](O)[C@@H]12 (stereo partly specified)	> 100 µM (inactive)	> 100 µM (inactive)	> 100 µM (inactive)	> 100 µM (inactive)	> 100	> 100 µM (inactive)	> 100 µM (inactive)	> 100 µM (inactive)	> 100 µM (inactive)	> 100 µM (inactive)	> 100 µM (inactive)		> 100 µM (inactive)	> 100 µM (inactive)	> 100 µM (inactive)	> 100 µM (inactive)	> 100 µM (inactive)	> 100 µM (inactive)		> 100 µM (inactive)
COc1ccc(CNC(=O)[C@@H](C)N(C)C(=O)[C@@H]2CCCN2C(=O)[C@H](C(C)C)N(C)C(=O)[C@@H](NC(=O)[C@H](C(C)C)N(Cc2ccccc2)Cc2ccccc2)C(C)C)cc1OC (Bn2Val-V[NMeV]P[dNMeA]-{NH(3,4-diMeO-benzyl)})	14 µM (inactive)	10.5 µM (inactive)	7.1 µM (inactive)	10.1 µM (inactive)	7.18	6.55 µM (inactive)	10.4 µM (inactive)	9.73 µM (inactive)	7.4 µM (inactive)	6.41 µM (inactive)	6.24 µM (inactive)	10.8 µM (inactive)	9.06 µM (inactive)	11.4 µM (inactive)	7.76 µM (inactive)	4.05 µM (inactive)	7.69 µM (inactive)	5.9 µM (inactive)		7.89 µM (inactive)
